Measured values taken from patent US20080221195A1, “1,2-DIARYLACETYLENE DERIVATIVES OF ACYLTRYPTOPHANOLS” (priority 2006, published 2008).

What follows are compounds tested against T1, human FSH receptor (Homo sapiens, UniProt P23945) (assay: HTRF assay for measuring cAMP in cells (FSH-antagonistic effect)). Conditions: hFSHR clone 16 cells (CHO cells stably transfected with the human FSH receptor), in the presence of 1e-9 mol/l hFSH, 37° C. for 2 h.
T1 construct: expressed in transfected cells; host or cells: CHO cells (hFSHR clone 16)
T1 sequence (P23945 18-695): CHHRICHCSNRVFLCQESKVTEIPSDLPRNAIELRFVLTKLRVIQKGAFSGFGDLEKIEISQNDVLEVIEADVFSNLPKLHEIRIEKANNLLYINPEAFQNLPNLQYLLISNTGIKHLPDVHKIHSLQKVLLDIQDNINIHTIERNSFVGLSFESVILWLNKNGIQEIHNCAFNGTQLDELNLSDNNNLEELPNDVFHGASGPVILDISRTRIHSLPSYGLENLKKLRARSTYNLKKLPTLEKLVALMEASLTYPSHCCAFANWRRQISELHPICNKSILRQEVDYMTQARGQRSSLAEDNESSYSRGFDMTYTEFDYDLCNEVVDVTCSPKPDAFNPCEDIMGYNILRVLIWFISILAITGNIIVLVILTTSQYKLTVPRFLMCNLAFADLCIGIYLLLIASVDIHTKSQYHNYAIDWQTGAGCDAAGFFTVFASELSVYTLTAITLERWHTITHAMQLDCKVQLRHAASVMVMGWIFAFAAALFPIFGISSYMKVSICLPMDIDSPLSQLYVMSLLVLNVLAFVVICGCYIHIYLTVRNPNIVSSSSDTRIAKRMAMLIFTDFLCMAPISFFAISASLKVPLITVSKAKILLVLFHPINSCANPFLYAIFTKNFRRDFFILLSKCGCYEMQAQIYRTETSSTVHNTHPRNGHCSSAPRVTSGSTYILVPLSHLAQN
Assay type: cell-based
Procedure: HTRF Assay for Measuring cAMP in Cells
The method is based on a competitive immunoassay between native cAMP, which has been produced by the cells, and cAMP which is labelled with cAMPD2 conjugate. The tracer binding was visualized by a monoclonal antibody, anti-cAMP labelled with cryptate [HTRF=homogeneous time-resolved fluorescence].
The specific signal is inversely proportional to the cAMP concentration of the samples employed.
The 665 nm/620 nm fluorescence ratio was evaluated.
Materials used: 96-well plates for the tissue culture, 96-well plates with black edge and black base (e.g. Fluotrac 600 from Greiner), 96-well plates for the substance dilutions of polypropylene and cAMP Femtomolar (4000 wells Kit, CIS Bio International # 62AM5PEJ).
Reagent used: BSA (bovine serum albumin) Fraction V protease-free, IBMX (3-isobutyl-1-methylxanthine), hFSH (human follicle stimulating hormone), Triton X-100 analytical grade, potassium fluoride analytical grade, G 418 (Geneticin) and Accutase.
Buffer 1 (washing and testing buffer) contained PBS, 1 mM CaCl2, 1 mM MgCl2, 0.2% glucose; 0.1% BSA, 1 mM IBMX.
Buffer 2 (2× lysis buffer) contained 1% Triton X-100 in PBS (without CaCl2 and MgCl2).
Buffer 3 (assay buffer) contained 50 mM potassium phosphate buffer (pH 7.0); 800 mM potassium fluoride; 0.2% BSA (always added fresh).
On day 1, the cells were seeded in 96-well plates (3×10^4 cells per well hFSHR clone 16 cells (CHO cells stably transfected with the human FSH receptor in 150 μl of medium). The next day, test substance dilutions were made up. For this purpose, all the substances were diluted in ice-cold buffer 1 (with or without hFSH), and the substance dilutions were placed on ice until applied to the cells. The cell supernatant was then aspirated off, and the cells were washed 2× with 200 μl of buffer 1. The cells were treated with 60 μl of the appropriate substance concentrations at 37° C. for 2 h. The cells were then lysed with 60 μl of buffer 2 (put onto the supernatant) (on a plate shaker at RT for 30 min). The test conjugates (cAMP-D2 and anti-cAMP cryptate, CIS Bio) were diluted in buffer 3 in accordance with the manufacturers' information. The actual mixture for measurement was pipetted into a black 96-well plate (in each case 15 μl of the cell lysate diluted with 35 μl of buffer 1; firstly 25 μl of cAMP-D2 conjugate were pipetted and, after 10 min, 25 μl of the anti-cAMP cryptate were added). This is followed by incubation at RT for 90 minutes. The measurement was carried out in a PheraStar (BMG).
Dose-effect curve (hFSH) for the human receptor: 1e-8, 3e-9, 1e-9, 3e-10, 1e-10, 3e-11, 1e-11, 3e-12 mol/l.
The test substances were employed in suitable dilutions in the absence (test for agonism) and in the presence of 1e-9 mol/l hFSH.
The values of the well ratio were averaged and then entered directly in SigmaPlot versus the concentrations. The maximum and minimum values were determined for each plate, and half the difference is to be regarded as IC50.

| SMILES | IC50 [nM] |
| --- | --- |
| CC(C)Oc1ccc(C#Cc2ccccc2C(F)(F)F)cc1C(=O)N[C@@H](CO)Cc1c[nH]c2ccccc12 [Example 119, N-[(R)-2-Hydroxy-1-(1H-indol-3-ylmethyl)-ethyl]-2-isopropoxy-5-(2-trifluoromethyl-phenylethynyl)-benzamide] | 25 |
| CC(C)Oc1ccc(C#Cc2cccc(S(N)(=O)=O)c2)cc1C(=O)N[C@@H](CO)Cc1c[nH]c2ccccc12 [Example 123, N-[(R)-2-Hydroxy-1-(1H-indol-3-ylmethyl)-ethyl]-2-isopropoxy-5-(3-sulfamoyl-phenylethynyl)-benzamide] | 250 |
| CC(C)Oc1ccc(C#Cc2ccc(N3CCCC3=O)cc2)cc1C(=O)N[C@@H](CO)Cc1c[nH]c2ccccc12 [Example 124, N-[(R)-1-Hydroxymethyl-2-(1H-indol-3-yl)-ethyl]-2-isopropoxy-5-[4-(2-oxo-pyrrolidin-1-yl)-phenylethynyl]-benzamide] | 80 |
| CC(C)Oc1ccc(C#Cc2ccc3oc(C(=O)O)cc3c2)cc1C(=O)N[C@@H](CO)Cc1c[nH]c2ccccc12 [Example 127, 5-{3-[(R)-1-Hydroxymethyl-2-(1H-indol-3-yl)-ethylcarbamoyl]-4-isopropoxy-phenylethynyl}-benzofuran-2-carboxylic acid] | 90 |
| CC(C)Oc1ccc(C#Cc2ccc(N3CCNCC3)cc2)cc1C(=O)N[C@@H](CO)Cc1c[nH]c2ccccc12 [Example 140, N-[(R)-1-Hydroxymethyl-2-(1H-indol-3-yl)-ethyl]-2-isopropoxy-5-(4-piperazin-1-yl-phenylethynyl)-benzamide] | 3500 |
| CC(C)Oc1ccc(C#Cc2ccc(-c3cc[nH]n3)cc2)cc1C(=O)N[C@@H](CO)Cc1c[nH]c2ccccc12 [Example 142, N-[(R)-2-Hydroxy-1-(1H-indol-3-ylmethyl)-ethyl]-2-isopropoxy-5-[4-(1H-pyrazol-3-yl)-phenylethynyl]-benzamide] | 10 |
| CC(C)Oc1ccc(C#Cc2cnc(N3CCOCC3)nc2)cc1C(=O)N[C@@H](CO)Cc1c[nH]c2ccccc12 [Example 145, N-[(R)-1-Hydroxymethyl-2-(1H-indol-3-yl)-ethyl]-2-isopropoxy-5-(2-morpholin-4-yl-pyrimidin-5-ylethynyl)-benzamide] | 300 |
| CC(C)Oc1ccc(C#Cc2ccc(N3CCNC3=O)cc2)cc1C(=O)N[C@@H](CO)Cc1c[nH]c2ccccc12 [Example 146, N-[(R)-1-Hydroxymethyl-2-(1H-indol-3-yl)-ethyl]-2-isopropoxy-5-[4-(2-oxo-imidazolidin-1-yl)-phenylethynyl]-benzamide] | 70 |
| CC(C)Oc1ccc(C#Cc2cccc(-c3nnn[nH]3)c2)cc1C(=O)N[C@@H](CO)Cc1c[nH]c2ccccc12 [Example 148, N-[(R)-2-Hydroxy-1-(1H-indol-3-ylmethyl)-ethyl]-2-isopropoxy-5-[3-(1H-tetrazol-5-yl)-phenylethynyl]-benzamide] | 30 |
| CC(C)Oc1ccc(C#Cc2ccc3c(c2)CCNC3=O)cc1C(=O)N[C@@H](CO)Cc1c[nH]c2ccccc12 [Example 154, N-[(R)-1-Hydroxymethyl-2-(1H-indol-3-yl)-ethyl]-2-isopropoxy-5-(1-oxo-1,2,3,4-tetrahydro-isoquinolin-6-ylethynyl)-benzamide] | 6 |
| CC(C)Oc1ccc(C#Cc2ccc3c(c2)C(=O)NC3)cc1C(=O)N[C@@H](CO)Cc1c[nH]c2ccccc12 [Example 155, N-[(R)-1-Hydroxymethyl-2-(1H-indol-3-yl)-ethyl]-2-isopropoxy-5-(3-oxo-2,3-dihydro-1H-isoindol-5-ylethynyl)-benzamide] | 15 |
| CC(C)Oc1ccc(C#Cc2cccc(C(=O)NCCS(N)(=O)=O)c2)cc1C(=O)N[C@@H](CO)Cc1c[nH]c2ccccc12 [Example 167, N-[(R)-1-Hydroxymethyl-2-(1H-indol-3-yl)-ethyl]-2-isopropoxy-5-[3-(2-sulfamoyl-ethylcarbamoyl)-phenylethynyl]-benzamide] | 23 |
| CC(C)Oc1ccc(C#Cc2ccc(C(=O)NCCC(N)=O)cc2)cc1C(=O)N[C@@H](CO)Cc1c[nH]c2ccccc12 [Example 177, 5-[4-(2-Carbamoyl-ethylcarbamoyl)-phenylethynyl]-N-[(R)-1-hydroxymethyl-2-(1H-indol-3-yl)-ethyl]-2-isopropoxy-benzamide] | 20 |

More lines, in order of falling IC50, values ahead:

| IC50 [nM] | SMILES |
| --- | --- |
| 6000 | O=C(N[C@@H](CO)Cc1c[nH]c2ccccc12)c1cccc(C#Cc2ccccn2)c1 [Example 160, N-[(R)-1-Hydroxymethyl-2-(1H-indol-3-yl)-ethyl]-3-pyridin-2-ylethynyl-benzamide] |
| 2000 | CC(C)Oc1ccc(C#Cc2cccc(CN3CCNCC3)c2)cc1C(=O)N[C@@H](CO)Cc1c[nH]c2ccccc12 [Example 141, N-[(R)-1-Hydroxymethyl-2-(1H-indol-3-yl)-ethyl]-2-isopropoxy-5-(3-piperazin-1-ylmethyl-phenylethynyl)-benzamide] |
| 35 | CC(C)Oc1ccc(C#Cc2ccc(C(=O)NCCN3CCNC(=O)C3)cc2)cc1C(=O)N[C@@H](CO)Cc1c[nH]c2ccccc12 [Example 173, N-[(R)-1-Hydroxymethyl-2-(1H-indol-3-yl)-ethyl]-2-isopropoxy-5-{4-[2-(3-oxo-piperazin-1-yl)-ethylcarbamoyl]-phenylethynyl}-benzamide] |
| 25 | COC(=O)CCCCCNC(=O)c1ccc(C#Cc2ccc(OC(C)C)c(C(=O)N[C@@H](CO)Cc3c[nH]c4ccccc34)c2)cc1 [Example 171, 6-(4-{3-[(R)-1-Hydroxymethyl-2-(1H-indol-3-yl)-ethylcarbamoyl]-4-isopropoxy-phenylethynyl}-benzoylamino)-hexanoic acid methyl ester] |
| 15 | CC(C)Oc1ccc(C#Cc2ccc3c(c2)C(=O)NC3=O)cc1C(=O)N[C@@H](CO)Cc1c[nH]c2ccccc12 [Example 156, 5-(1,3-Dioxo-2,3-dihydro-1H-isoindol-5-ylethynyl)-N-[(R)-1-hydroxymethyl-2-(1H-indol-3-yl)-ethyl]-2-isopropoxy-benzamide] |
| 15 | COC(=O)CCNC(=O)c1cccc(C#Cc2ccc(OC(C)C)c(C(=O)N[C@@H](CO)Cc3c[nH]c4ccccc34)c2)c1 [Example 165, 3-(3-{3-[(R)-1-Hydroxymethyl-2-(1H-indol-3-yl)-ethylcarbamoyl]-4-isopropoxy-phenylethynyl}-benzoylamino)-propionic acid methyl ester] |
